Data: ChEMBL document CHEMBL1138473, “NMR and molecular dynamics study of the binding mode of naphthalene-N-sulfonyl-D-glutamic acid derivatives: novel MurD ligase inhibitors” (J Med Chem, 2009)

test: Inhibition of Escherichia coli BL21-A1 MurD

Row | SMILES | IC50 [µM]
1 | CCCCOc1ccc2cc(S(=O)(=O)N[C@H](CCC(=O)O)C(=O)O)ccc2c1 | 280
2 | CCCCOc1ccc2ccc(S(=O)(=O)N[C@H](CCC(=O)O)C(=O)O)cc2c1 | 180
3 | O=C(O)CC[C@@H](NS(=O)(=O)c1ccc2cc(OCc3ccccc3)ccc2c1)C(=O)O | 239
4 | CCCCOc1ccc2cc(S(=O)(=O)N[C@@H](CCC(=O)O)C(=O)O)ccc2c1 | 710
5 | O=C(O)CC[C@@H](NS(=O)(=O)c1ccc2cc(OCC(=O)O)ccc2c1)C(=O)O | 630
6 | O=C(O)CC[C@@H](NS(=O)(=O)c1ccc2cc(OCCCc3ccccc3)ccc2c1)C(=O)O | 132
7 | O=C(O)CC[C@@H](NS(=O)(=O)c1ccc2ccccc2c1)C(=O)O | 810
8 | O=C(O)CC[C@@H](NS(=O)(=O)c1ccc2cc(OC3CCCC3)ccc2c1)C(=O)O | 400
9 | CCOC(=O)COc1ccc2cc(S(=O)(=O)N[C@H](CCC(=O)O)C(=O)O)ccc2c1 | 192
